Patent US9296716B2, “Androgen receptor ligands” (THE PROVOST, FELLOWS, FOUNDATION SCHOLARS, & THE OTHER …, priority 2011, dated 2016)

Experiments:
Assay type in all cases: biochemical
[1] = biological target: T1, Progesterone Receptor (PR) LBD (Homo sapiens, UniProt P06401); assay: TR-FRET SRC1-4 coactivator recruitment assay, PR LBD; conditions: Progesterone = EC80; for IC50: TR-FRET, ± SEM (n = 6), read-out: NR LBDs IC50 (μM) PR; for effect on PR LBD recruitment of fluorescent labelled SRC1-4 coactivator: maximal concentration of 100 μM
T1 construct: purchased Invitrogen PV4666
T1 sequence (P06401 679-913 limits assumed): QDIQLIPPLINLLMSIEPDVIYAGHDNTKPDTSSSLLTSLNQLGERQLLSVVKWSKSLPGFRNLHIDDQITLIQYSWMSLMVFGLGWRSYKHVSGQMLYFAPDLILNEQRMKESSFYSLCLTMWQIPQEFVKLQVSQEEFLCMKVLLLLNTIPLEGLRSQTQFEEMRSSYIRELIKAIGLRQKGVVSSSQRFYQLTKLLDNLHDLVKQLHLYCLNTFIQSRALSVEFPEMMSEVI
Protocol: (§1) Compound binding affinities for Progesterone Receptor (PR), Glucocorticoid Receptor (GR), Estrogen Receptor alpha and Estrogen Receptor beta were determined using TR-FRET (Table 2).
(§2) Lanthascreen TR-FRET AR Coactivator Assay kit (Invitrogen, cat no. PV4381) was used to screen for potential coactivator disruptors.
(§3) TR FRET values were calculated at 10 flashes per well, using a delay time of 100 μs and integration time 200 μs as recommended by the Invitrogen assay guidelines. […] A serial dilution of compounds was firstly prepared in 100×DMSO (Sigma-Aldrich) starting from the maximum desired concentration to achieve a 12 point range concentration using 96-well polypropylene plates (Nalgene Nunc, Rochester, N.Y.). Each 100× solution was diluted to 2× concentration with TR-FRET co-regulator buffer A (Invitrogen proprietary buffer), yielding a final concentration of 1% DMSO in each well.
(§4) D11-FxxLF and Tb antibody were premixed in light protecting vials prior to use. A final concentration of DTT 5 mM was used in the assay buffer in order to prevent protein degradation. All plates (agonist and antagonist mode) were incubated between 2 and 4 hours at room temperature protected from light prior to TR-FRET measurement. […] Data was fitted using the sigmoidal dose response (variable slope) available from Graphpad Prism 5. Y=Bottom+(Top-Bottom)/(1+10^((Log IC50−X)*HillSlope))
(§5) The same procedure was used for AR T877A (Invitrogen cat no. PV4667), PR (Invitrogen cat no. PV4666), ER-α (Invitrogen cat no. PV4544), ER-β (Invitrogen cat no. PV4541) and GR (Invitrogen cat no. PV4683). The assay was adapted to exclude possible non-specific aggregation mechanism of inhibition by adding very low concentration of detergent Triton X-100 (0.001%) to the assay buffer following the Shoichet review guidelines [Shoichet BK (2006) Screening in a spirit haunted world. Drug Discov Today 11:607-615].

[2] = biological target: Estrogen Receptor beta (ER-β) LBD (Homo sapiens, UniProt Q92731); assay: TR-FRET PGC1-α coactivator recruitment assay, ERβ LBD; conditions: Estradiol = EC80; for IC50: TR-FRET, ± SEM (n = 6), read-out: NR LBDs IC50 (μM) ER-β; for effect on ERβ LBD recruitment of fluorescent labelled PGC1-α coactivator: maximal concentration of 100 μM
Protocol: as §1
(§6) Selectivity of the diarylhydrazide scaffold for the AR was determined through a TR-FRET assay in ERα (FIGS. 8A & 9A1) and ERR (FIGS. 8B & 9A2). […] The non-LBP nature of this inhibition was confirmed by a FP assay (FIGS. 9C, 9B1 & 9B2).
as §2, §3, §4, §5

[3] = biological target: T2, Glucocorticoid Receptor (GR) LBD (Homo sapiens, UniProt P04150); assay: TR-FRET SRC1-4 coactivator recruitment assay, GR LBD; conditions: Dexamethasone = EC80; for effect on SRC1-4 recruitment by GR LBD: 100 μM to 12.5 μM or single point 100 μM; for IC50: TR-FRET, ± SEM (n = 6), read-out: NR LBDs IC50 (μM) GR
T2 construct: purchased Invitrogen PV4683
T2 sequence (P04150 524-758 limits assumed): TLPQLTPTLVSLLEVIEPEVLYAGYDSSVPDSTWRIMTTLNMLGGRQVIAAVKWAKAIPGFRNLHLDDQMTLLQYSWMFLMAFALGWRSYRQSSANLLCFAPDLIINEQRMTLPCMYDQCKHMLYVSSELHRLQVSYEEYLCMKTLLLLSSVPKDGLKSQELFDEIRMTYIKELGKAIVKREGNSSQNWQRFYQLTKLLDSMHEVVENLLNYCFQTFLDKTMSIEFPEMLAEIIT
Protocol: as §1
Dexamethasone bound receptor recruitment of the fluorescently labelled SCR1-4 coactivator was unimpaired at screening concentrations up to 100 μM for all the diarylhydrazides evaluated (FIG. 5).
as §2, §3, §4, §5

AR-LBD wt = biological target: T3, AR-LBD wt (Homo sapiens, UniProt P10275); assay: Lanthascreen TR-FRET AR coactivator (D11-FxxLF) assay, AR-LBD wt; conditions: for type of AR antagonism (full / partial): TR-FRET in agonist and antagonist mode; for IC50: TR-FRET, D11-FxxLF peptide, DHT = EC80, read-out: Activity (AR wt TR-FRET)
T3 sequence (P10275 669-900 limits assumed): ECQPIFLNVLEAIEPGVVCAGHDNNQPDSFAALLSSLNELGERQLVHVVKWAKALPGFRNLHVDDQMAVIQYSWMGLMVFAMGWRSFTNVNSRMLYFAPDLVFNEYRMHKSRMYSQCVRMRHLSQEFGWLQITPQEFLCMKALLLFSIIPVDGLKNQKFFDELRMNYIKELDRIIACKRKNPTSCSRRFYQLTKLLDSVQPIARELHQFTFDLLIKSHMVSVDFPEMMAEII

[4] = biological target: T4, Estrogen Receptor alpha (ER-α) LBD (Homo sapiens, UniProt P03372); assay: TR-FRET PGC1-α coactivator recruitment assay, ERα LBD; conditions: Estradiol = EC80; for IC50: TR-FRET, ± SEM (n = 6), read-out: NR LBDs IC50 (μM) ER-α; for effect on ERα LBD recruitment of fluorescent labelled PGC1-α coactivator: maximal concentration of 100 μM
T4 sequence (P03372 311-547 limits assumed): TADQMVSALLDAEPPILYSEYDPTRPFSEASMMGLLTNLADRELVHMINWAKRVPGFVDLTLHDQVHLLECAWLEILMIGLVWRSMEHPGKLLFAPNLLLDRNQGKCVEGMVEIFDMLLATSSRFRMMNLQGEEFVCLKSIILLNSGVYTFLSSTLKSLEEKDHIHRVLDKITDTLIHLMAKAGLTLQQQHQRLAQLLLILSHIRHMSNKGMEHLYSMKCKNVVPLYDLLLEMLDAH
Protocol: as §1, §6, §2, §3, §4, §5

Estrogen Receptor beta (ER-β) LBD, sequence (Q92731 264-498 limits assumed): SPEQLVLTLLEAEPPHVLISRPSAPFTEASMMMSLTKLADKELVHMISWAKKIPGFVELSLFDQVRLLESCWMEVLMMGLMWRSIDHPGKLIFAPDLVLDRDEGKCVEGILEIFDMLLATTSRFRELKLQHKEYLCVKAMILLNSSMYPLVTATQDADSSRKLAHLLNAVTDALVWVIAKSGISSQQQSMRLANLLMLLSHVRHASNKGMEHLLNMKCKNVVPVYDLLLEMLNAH

| SMILES | IC50 [1] [µM] | effect on PR LBD recruitment of fluorescent labelled SRC1-4 coactivator [1] | IC50 [2] [µM] | effect on ERβ LBD recruitment of fluorescent labelled PGC1-α coactivator [2] | effect on SRC1-4 recruitment by GR LBD [3] | IC50 [3] [µM] | type of AR antagonism (full / partial) (AR-LBD wt) | IC50 (AR-LBD wt) [µM] | IC50 [4] [µM] | effect on ERα LBD recruitment of fluorescent labelled PGC1-α coactivator [4] | effect on PR recruitment of fluorescent labelled SRC1-4 ([1]; 100 μM to 45 nM) | effect on ERβ recruitment of fluorescent labelled PGC1-α ([2]; 100 μM to 45 nM) | effect on ERα recruitment of fluorescent labelled PGC1-α ([4]; 100 μM to 45 nM) |
| --- | --- | --- | --- | --- | --- | --- | --- | --- | --- | --- | --- | --- | --- |
| O=C(N/N=C/c1cccc(Cl)c1)c1cc2ccccc2cc1O [MDG491] | 50 to 100 | inhibit | > 100 | inhibit | do not affect | > 100 | full AR antagonists | 42.7 ± 3.5 | > 100 | inhibit |  |  |  |
| CCCOc1ccc(/C=N/NC(=O)c2cc3c(ccc4ccccc43)o2)cc1 [MDG508] | 5.9 |  | 2.9 |  | do not affect | > 100 | full AR antagonists |  | 4 ± 1.4 |  | partially inhibit | partially inhibit | partially inhibit |
| O=C(N/N=C/c1cc(Cl)ccc1O)c1cc2ccccc2cc1O [MDG605] |  | inhibit | 50 to 100 | inhibit | do not affect | > 100 | full AR antagonists | 10.3 ± 1.4 | 50 to 100 | inhibit |  |  |  |
| O=C(N/N=C/c1ccccc1O)c1cc2ccccc2cc1O [MDG608] | > 100 | inhibit |  | inhibit | do not affect | > 100 | full AR antagonists | 55.2 ± 19.2 | > 100 | inhibit |  |  |  |
| O=C(N/N=C/c1cc(O)ccc1O)c1cc2ccccc2cc1O [MDG611] |  | inhibit |  | inhibit | do not affect | > 100 | full AR antagonists | 39.9 ± 16.9 |  | inhibit |  |  |  |
| COc1ccc(O)c(/C=N/NC(=O)c2cc3ccccc3cc2O)c1 [MDG612] | 50 to 100 | inhibit |  | inhibit | do not affect | > 100 | full AR antagonists | 52.9 ± 13.5 |  | inhibit |  |  |  |
| O=C(N/N=C/c1cc([N+](=O)[O-])ccc1O)c1cc2ccccc2cc1O [MDG614] |  | inhibit | > 100 | inhibit | do not affect | > 100 | full AR antagonists | 33.4 ± 4.7 | > 100 | inhibit |  |  |  |
| Cc1cccc(/C=N/NC(=O)c2cc3ccccc3cc2O)c1O [MDG616] |  | inhibit |  | inhibit | do not affect | > 100 | full AR antagonists | 13.2 ± 2.8 |  | inhibit |  |  |  |
| COc1cccc(/C=N/NC(=O)c2cc3ccccc3cc2O)c1O [MDG617] |  | inhibit |  | inhibit | do not affect | > 100 | full AR antagonists | 12.2 ± 0.5 |  | inhibit |  |  |  |
| COC(=O)c1ccc(O)c(/C=N/NC(=O)c2cc3ccccc3cc2O)c1 [MDG629] |  | inhibit |  | inhibit | do not affect | > 100 | full AR antagonists | 60.8 |  | inhibit |  |  |  |
| O=C(O)c1ccc(O)c(/C=N/NC(=O)c2cc3ccccc3cc2O)c1 [MDG630] |  | inhibit |  | inhibit | do not affect | > 100 | full AR antagonists | 43.5 ± 3.7 |  | inhibit |  |  |  |
